# Measurements published in ChEMBL document CHEMBL5143549, “Phenothiazine, anthraquinone and related tricyclic derivatives as inhibitors of monoamine oxidase” (Bioorg Med Chem, 2022).
# Experiments:
# [1] = biological target: T1, Amine oxidase [flavin-containing] A (Homo sapiens, UniProt P21397); experiment: Inhibition of recombinant human MAO-A expressed in baculovirus infected BTI insect cells using kynuramine as substrate after 20 mins by fluorescence spectrophotometric assay
# T1 sequence (P21397 whole entry): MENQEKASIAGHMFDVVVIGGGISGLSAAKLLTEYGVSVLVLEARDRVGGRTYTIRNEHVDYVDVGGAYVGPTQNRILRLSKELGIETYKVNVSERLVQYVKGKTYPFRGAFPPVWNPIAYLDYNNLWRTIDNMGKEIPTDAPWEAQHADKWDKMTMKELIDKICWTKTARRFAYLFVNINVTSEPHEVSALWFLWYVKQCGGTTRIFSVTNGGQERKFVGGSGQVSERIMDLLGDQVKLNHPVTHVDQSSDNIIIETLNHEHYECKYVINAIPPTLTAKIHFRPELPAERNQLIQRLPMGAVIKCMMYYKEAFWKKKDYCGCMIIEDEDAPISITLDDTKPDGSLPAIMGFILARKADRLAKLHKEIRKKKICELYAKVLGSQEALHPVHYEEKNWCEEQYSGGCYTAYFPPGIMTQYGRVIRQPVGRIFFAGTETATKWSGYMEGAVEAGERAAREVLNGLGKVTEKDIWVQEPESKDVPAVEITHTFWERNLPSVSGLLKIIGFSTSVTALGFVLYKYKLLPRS
# [2] = biological target: T2, Amine oxidase [flavin-containing] B (Homo sapiens, UniProt P27338); experiment: Inhibition of recombinant human MAO-B expressed in baculovirus infected BTI insect cells using kynuramine as substrate after 20 mins by fluorescence spectrophotometric assay
# T2 sequence (P27338 whole entry): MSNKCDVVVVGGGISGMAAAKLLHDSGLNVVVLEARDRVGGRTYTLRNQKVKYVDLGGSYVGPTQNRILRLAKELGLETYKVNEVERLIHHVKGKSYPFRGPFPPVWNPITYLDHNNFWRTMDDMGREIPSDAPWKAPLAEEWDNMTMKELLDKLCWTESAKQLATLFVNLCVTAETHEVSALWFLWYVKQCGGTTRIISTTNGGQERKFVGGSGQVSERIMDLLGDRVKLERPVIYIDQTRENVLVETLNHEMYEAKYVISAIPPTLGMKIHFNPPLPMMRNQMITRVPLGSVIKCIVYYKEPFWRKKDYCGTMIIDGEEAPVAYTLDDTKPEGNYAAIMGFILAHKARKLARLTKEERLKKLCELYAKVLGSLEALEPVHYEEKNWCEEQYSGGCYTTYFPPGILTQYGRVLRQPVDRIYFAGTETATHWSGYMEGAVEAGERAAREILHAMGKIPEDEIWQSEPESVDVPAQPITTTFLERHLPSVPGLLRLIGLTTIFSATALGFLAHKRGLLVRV
# Homo sapiens = species: Homo sapiens; experiment: Selectivity index, ratio IC50 for recombinant human MAO-B to IC50 for recombinant human MAO-A
# [3] = biological target: T1, Amine oxidase [flavin-containing] A; experiment: Inhibition of recombinant human MAO-A expressed in baculovirus infected BTI insect cells using kynuramine as substrate after 20 mins by Lineweaver-Burk plot analysis
# [4] = biological target: T2, Amine oxidase [flavin-containing] B; experiment: Inhibition of recombinant human MAO-B expressed in baculovirus infected BTI insect cells using kynuramine as substrate after 20 mins by Lineweaver-Burk plot analysis
SMILES,IC50 [1],IC50 [2],Ratio IC50 (Homo sapiens),Ki [3],Ki [4]
Nc1ccc2c(c1N)C(=O)c1ccccc1C2=O,2.28 µM,2.41 µM,1.06,,
O=c1c2ccccc2oc2ccccc12 [XANTHONE],0.623 µM,,,,
"O=C1C(=O)c2ccccc2-c2ccccc21 [9,10-PHENANTHRENEQUINONE]",1.92 µM,,,,
O=C1c2ccccc2C(=O)c2c(O)ccc(O)c21 [QUINIZARIN],0.065 µM,110 µM,1690,0.039 µM,
c1ccc2c(c1)Cc1ccccc1O2 [XANTHENE],24.8 µM,7.42 µM,0.32,,
O=C1c2cccc(O)c2C(=O)c2c(O)cccc21 [DANTHRON],10.7 µM,58.7 µM,5.49,,
O=C1c2ccc(O)cc2C(=O)c2ccc(O)cc21 [ANTHRAFLAVICACID],11.5 µM,5.62 µM,0.49,,
COc1ccc2c(c1)Sc1ccc(Cl)cc1N2,0.576 µM,1.34 µM,,,0.045 µM
O=C1c2ccccc2C(=O)c2c1ccc1c(=O)c3ccccc3[nH]c21,85.6 µM,,,,
O=C1c2ccccc2C(=O)c2ccccc21 [ANTHRAQUINONE],122 µM,,,,
Clc1c2ccccc2nc2ccccc12,12.1 µM,91.9 µM,7.6,,
O=C1c2ccccc2Cc2ccccc21 [ANTHRONE],1.89 µM,,,,
Clc1ccc2c(c1)Nc1ccccc1S2,1.22 µM,,,,
O=C1c2ccccc2C(=O)c2c(O)c(O)cc(O)c21 [PURPURIN],7.99 µM,40.2 µM,5.03,,
O=C1c2cccc(O)c2C(=O)c2c(O)cc(CO)cc21 [ALOE-EMODIN],1.77 µM,21.9 µM,12.4,,
O=C1c2ccccc2C(=O)c2cnccc21,20.2 µM,4.28 µM,0.21,,
Nc1ccc(N)c2c1C(=O)c1ccccc1C2=O,1.06 µM,,,,
CC1(C)CC(=O)C2=C(C1)C(=O)C1=C(C2)C(=O)CC(C)(C)C1,51 µM,,,,
Cc1ccc2nc3c(ccc4ccccc43)c(C)c2c1,95.1 µM,,,,
Nc1c2ccccc2nc2ccccc12 [AMINACRINE],26 µM,112 µM,4.31,,
CN1c2ccccc2Sc2ccccc21,24.9 µM,,,,
OC1c2ccccc2Oc2ccccc21,28.4 µM,92 µM,3.24,,
Cc1cc(O)c2c(c1)C(=O)c1cc(O)cc(O)c1C2=O [EMODIN],4.32 µM,3.24 µM,0.75,,
O=C1c2cccc(O)c2C(=O)c2cccc(O)c21 [ANTHRARUFIN],30.8 µM,,,,
Nc1c(C(=O)O)c2nc3c(C(=O)O)cccc3oc-2cc1=O [CINNABARINIC ACID],45.3 µM,65 µM,1.43,,
O=C1c2ccc(O)c(O)c2C(=O)c2c(O)ccc(O)c21 [QUINALIZARIN],17 µM,,,,
